Test results reported in ChEMBL document CHEMBL1157975, “Diterpenoids from the roots of Euphorbia fischeriana” (J Nat Prod, 2006).
≈ marks a conversion by molar mass, not a printed value.

Tested on: Ramos
Assay: Cytotoxicity against human Ramos B cells after 72 hrs by MTT assay
Format: functional, cell-based

Row | SMILES | IC50
1 | CCCCCCCCCC(=O)O[C@@]12C[C@@H](C)[C@]3(O)[C@@H](C=C(CO)C[C@@]4(O)C(=O)C(C)=C[C@@H]34)[C@@H]1C2(C)C | 0.0051 µg/mL (≈ 0.0101 µM)
2 | CC(=O)OCC1=C2[C@H]3O[C@]34CC[C@@H]3C(C)(C)CCC[C@@]3(C)[C@@H]4[C@H]3O[C@@]23OC1=O [17-ACETOXYJOLKINOLIDE B] | 0.023 µg/mL (≈ 0.0592 µM)
3 | CC(=O)O[C@@]12C[C@@H](C)[C@@]3(O)[C@@H](C=C(CO)C[C@]4(O)C(=O)C(C)=C[C@@H]34)[C@@H]1C2(C)C [PROSTRATIN] | 0.056 µg/mL (≈ 0.143 µM)
